Laboratory results reported in patent US12653190B2, “Heteroaryl-triazole compounds as pesticides” (Bayer Aktiengesellschaft, priority 2020, dated 2026).

What was measured:
Type in all cases: in vivo
[1] = system: southern root-knot nematode (Meloidogyne incognita); test: Meloidogyne incognita test; conditions: 20 ppm, after 14 days
Method: Meloidogyne incognita—Test
• Solvent: 125.0 parts by weight of acetone
To produce a suitable preparation of active compound, 1 part by weight of active compound is mixed with the stated amount of solvent, and the concentrate is diluted with water to the desired concentration. Vessels are filled with sand, a solution of the active ingredient, a suspension containing eggs and larvae of the southern root-knot nematode (Meloidogyne incognita) and salad seeds. The salad seeds germinate and the seedlings grow. Galls develop in the roots.
After 14 days the nematicidal activity is determined on the basis of the percentage of gall formation. 100% means no galls were found and 0% means the number of galls found on the roots of the treated plants was equal to that in untreated control plants.

[2] = system: fall armyworm larvae (Spodoptera frugiperda); test: Spodoptera frugiperda spray test; conditions: in Zea mays, 168 h
Outline: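 Maize leaf sections were sprayed with compound in acetone/dimethylformamide diluted in water with 1000 ppm emulsifier, dried, then infested with larvae. Mortality in % was scored after 7 days, 100% meaning all caterpillars killed.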

[3] = system: larvae of the banded cucumber beetle (Diabrotica balteata); test: Diabrotica balteata spray test; conditions: 168 h, after 7 days, wheat seeds, read-out: efficacy (seedling growth); for pest or weed control at 32 µg/disc, 100 g/ha: 100 g/ha (=32 μg/well); for pest or weed control at 160 µg/disc, 500 g/ha: 500 g/ha (=160 μg/well)
Outline: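 Germinated wheat seeds on agar (5 per well) were sprayed with compound formulated in acetone/DMF and diluted in water with 1000 ppm emulsifier. Each unit was then infested with 10–20 larvae. Efficacy % was scored after 7 days as seedling growth relative to an untreated, uninfested control (100% = normal growth).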

[4] = system: Rhipicephalus (Boophilus) microplus larvae (strain Parkhurst, resistant against synthetic pyrethroids); test: Rhipicephalus (Boophilus) microplus in-vitro contact test, larval cattle tick; conditions: 5 μg/cm^2 (=500 g/ha), after 48 hours, read-out: efficacy (larvae dead or moribund)
Method: Rhipicephalus (Boophilus) microplus—In-Vitro Contact Tests Larval Cattle Tick (Strain Parkhurst, Resistant Against Synthetic Pyrethroids)
(§1) 9 mg compound is solved in 1 mL acetone and diluted with acetone to the desired concentration. 250 μL of the test solution is filled in 25 mL glass test tubes and homogeneously distributed on the inner walls by rotation and tilting on a shaking device (2 h at 30 rpm). With a compound concentration of 900 ppm, an inner surface of 44.7 cm^2 and a homogeneous distribution, a dose of 5 μg/cm^2 is achieved.
After the solvent has evaporated, each test tube is filled with 20-50 cattle tick larvae (Rhipicephalus microplus), closed with a perforated lid and incubated in a horizontal position at 85% relative humidity and 27° C. in an incubator. After 48 hours efficacy is determined. The larvae are patted on the ground of the tubes and negative geotactic behavior is recorded.
An efficacy of 100% means all larvae are dead or moribund; 0% means no larvae are dead or moribund.

[5] = system: adult mosquitoes Aedes aegypti strain MONHEIM; test: Aedes aegypti test (AEDSAE surface treatment & contact assay); conditions: 24 hours after contact, read-out: efficacy (mortality); for mortality at 4 mg/m2: surface concentration 4 mg/m^2, 30 minutes exposure; for mortality at 20 mg/m2: surface concentration 20 mg/m^2, 30 minutes exposure
Method: Aedes aegypti Test (AEDSAE Surface Treatment & Contact Assay)
(§2) • Solvent: Aceton+2000 ppm rapeseed oil methyl ester (RME)
(§3) In order to produce a sufficient, active ingredient containing solution it is necessary to solve the test compound in the solvent-mix (acetone at 2 mg/ml/RME 2000 ppm). This solution is pipetted onto a glazed tile and after evaporation of the acetone, adult mosquitoes of the species Aedes aegypti strain MONHEIM are placed onto the dried surface. The exposure time is 30 minutes.
(§4) Mortality in percent (%) is determined 24 hours after contact of the insects to the treated surface. 100% mortality means that all tested insects are dead, whereas 0% means that no insect died.

[6] = system: larvae of the southern green stink bug (Nezara viridula); test: Nezara viridula spray test; conditions: 96 h, after 4 days, barley plants
Outline: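 Compound in acetone/DMF was diluted in water with 1000 ppm alkylarylpolyglycol ether emulsifier. Barley plants were sprayed with it, then infested with Nezara viridula larvae. Mortality % was scored after 4 days (100% = all killed).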

[7] = system: adult mosquitoes Culex quinquefasciatus strain P00; test: Culex quinquefasciatus test (CULXFA surface treatment & contact assay); conditions: 24 hours after contact, read-out: efficacy (mortality); for mortality at 20 mg/m2: surface concentration 20 mg/m^2, 30 minutes exposure
Method: Culex quinquefasciatus Test (CULXFA Surface Treatment & Contact Assay)
as §2
as §3, with “2 000” for “2000”, “Culex Quinquefasciatus” for “Aedes aegypti”, “P00” for “MONHEIM”, “minutes. Mortality in percent (%) is determined 24 hours after contact of the insects to the treated surface. 100% mortality means that all tested insects are dead, whereas 0% means that no insect died.” for “minutes.”

[8] = system: green peach aphid (Myzus persicae); test: Myzus persicae spray test; conditions: foliar, 120 h, after 5 days, Chinese cabbage leaf disks
Method: Myzus persicae—Spray Test
• Solvent: 78.0 parts by weight acetone • 1.5 parts by weight dimethylformamide • Emulsifier: alkylarylpolyglycol ether
To produce a suitable preparation of active compound, 1 part by weight of active compound is mixed with the stated amount of solvents and is diluted with water, containing an emulsifier concentration of 1000 ppm, to the desired concentration. Further test concentrations are prepared by dilution with emulsifier containing water.
Chinese cabbage (Brassica pekinensis) leaf disks infected with all instars of the green peach aphid (Myzus persicae), are sprayed with a preparation of the active ingredient of the desired concentration.
(§5) After 5 days mortality in % is determined. 100% means all aphids have been killed and 0% means none of the aphids have been killed.

[9] = system: adult brown dog ticks (Rhipicephalus sanguineus); test: Rhipicephalus sanguineus in-vitro contact test, adult brown dog ticks; conditions: 5 μg/cm^2 (=500 g/ha), after 48 hours, read-out: efficacy (ticks dead or moribund)
Method: Rhipicephalus sanguineus—In-Vitro Contact Tests with Adult Brown Dog Ticks
as §1
(§6) After the solvent has evaporated, each test tube is filled with 5-10 adult brown dog ticks (Rhipicephalus sanguineus), closed with a perforated lid and incubated in a lying position at room temperature and relative humidity. After 48 hours efficacy is determined. The ticks are patted on the ground of the tubes and are incubated on a heating plate at 45-50° C. for at most 5 minutes Immotile or uncoordinated moving ticks, which are not able to escape the heat by climbing upwards, are marked as dead or moribund.
An efficacy of 100% means all ticks are dead or moribund; 0% means no ticks are dead or moribund.

[10] = system: adult flies Musca domestica strain WHO-N; test: Musca domestica test (MUSCDO surface treatment & contact assay); conditions: 24 hours after contact, read-out: efficacy (mortality); for mortality at 4 mg/m2: surface concentration 4 mg/m^2, 30 minutes exposure; for mortality at 20 mg/m2: surface concentration 20 mg/m^2, 30 minutes exposure
Method: Musca domestica Test (MUSCDO Surface Treatment & Contact Assay)
as §2
as §3, with “flies” for “mosquitoes”, “Musca domestica” for “Aedes aegypti”, “WHO-N” for “MONHEIM”
as §4

[11] = system: adult cat fleas (Ctenocephalides felis); test: Ctenocephalides felis in-vitro contact test, adult cat flea; conditions: 5 μg/cm^2 (=500 g/ha), after 48 hours, read-out: efficacy (fleas dead or moribund)
Method: Ctenocephalides felis—In-Vitro Contact Tests Adult Cat Flea
as §1
as §6, with “cat fleas (Ctenocephalides felis),” for “brown dog ticks (Rhipicephalus sanguineus),”, “fleas” for “ticks”, “fleas,” for “ticks,”
An efficacy of 100% means all fleas are dead or moribund; 0% means no fleas are dead or moribund.

[12] = system: green peach aphid (Myzus persicae); test: Myzus persicae oral test; conditions: 120 h, after 5 days
Method: • Solvent: 100 parts by weight acetone
To produce a suitable preparation of active compound, 1 part by weight of active compound is mixed with the stated amount of solvent, and the concentrate is diluted with water to the desired concentration.
50 μL compound solution is filled in microtiter plates and 150 μL IPL41 insect medium (33%+15% sugar) is added to obtain a total volume of 200 μL per well. Afterwards the plates are sealed with parafilm through which a mixed population of the green peach aphid (Myzus persicae) can suck on the compound preparation.
as §5

With `C[C@H](NC(=O)c1cc(OCC(Cl)=C(Cl)Cl)cc(C(F)(F)F)c1)c1ncnn1-c1ccc(C#N)cn1` [Example I-24] the “nematicidal activity (gall formation)” value [1] was 90%, the mortality at 100 g/ha [2] was 100% and the mortality at 500 g/ha [2] was 100%. The pest or weed control at 32 µg/disc, 100 g/ha [3] was 100% and the pest or weed control at 160 µg/disc, 500 g/ha [3] was 100%.

`C[C@H](NC(=O)c1cc(C(F)(F)F)cc(C(C)(C)C#N)c1)c1ncnn1-c1ccc(C#N)cn1` [Example I-42] was tested, and the pest or weed control at 5 µg/cm2, 5 µg/cm2 [4] was 100%, the mortality at 4 mg/m2 [5] was 80 to 100% and the mortality at 20 mg/m2 [5] was 80 to 100%. It also gave a mortality at 100 g/ha [6] of 100%, a mortality at 500 g/ha [6] of 100% and a mortality at 100 g/ha [2] of 100%. It also gave a pest or weed control at 32 µg/disc, 100 g/ha [3] of 100%, a mortality at 4 mg/m2 ([7]; surface concentration 4 mg/m^2, 30 minutes exposure) of 80 to 100% and a mortality at 20 mg/m2 [7] of 80 to 100%. The mortality at 100 g/ha [8] was 100%, the pest or weed control at 5 µg/cm2, 5 µg/cm2 [9] was 80% and the mortality at 4 mg/m2 [10] was 80 to 100%. For the same molecule, the mortality at 20 mg/m2 [10] was 80 to 100% and the pest or weed control at 5 µg/cm2, 5 µg/cm2 [11] was 80%.

With `C[C@H](NC(=O)c1cc(Cl)cc(OC(C)(C)C#N)c1)c1ncnn1-c1ncc(C#N)s1` [Example I-61] the “nematicidal activity (gall formation)” value [1] was 90%, the mortality at 100 g/ha [2] was 100% and the pest or weed control at 32 µg/disc, 100 g/ha [3] was 100%.

`C[C@H](NC(=O)c1cc(Cl)cc(C(C)(C)C#N)c1)c1ncnn1-c1ccc(C#N)cn1` [Example I-33, 3-Chloro-5-(2-cyanopropan-2-yl)-N-{(1S)-1-[1-(5-cyanopyridin-2-yl)-1H-1,2,4-triazol-5-yl]ethyl}benzamide] was tested, and the pest or weed control at 5 µg/cm2, 5 µg/cm2 [4] was 100%, the mortality at 4 ppm [12] was 100% and the mortality at 4 mg/m2 [5] was 80 to 100%. It also gave a mortality at 20 mg/m2 [5] of 80 to 100%, a mortality at 100 g/ha [2] of 100% and a pest or weed control at 32 µg/disc, 100 g/ha [3] of 100%. The mortality at 20 mg/m2 [7] was 80 to 100%, the pest or weed control at 5 µg/cm2, 5 µg/cm2 [9] was 100% and the mortality at 4 mg/m2 [10] was 80 to 100%. The mortality at 20 mg/m2 [10] was 80 to 100% and the pest or weed control at 5 µg/cm2, 5 µg/cm2 [11] was 80%.

`C[C@H](NC(=O)c1cc(OC[S+](C)[O-])cc(C(F)(F)F)c1)c1ncnn1-c1ccc(C#N)cn1` (stereo partly drawn) [Example I-27, N-{(1S)-1-[1-(5-Cyanopyridin-2-yl)-1H-1,2,4-triazol-5-yl]ethyl}-3-[(methylsulfinyl)methoxy]-5-(trifluoromethyl)benzamide] showed a pest or weed control at 5 µg/cm2, 5 µg/cm2 [4] of 100%, a mortality at 4 ppm [12] of 100% and a mortality at 20 ppm ([12]; 20 ppm) of 100%. It also gave a mortality at 4 mg/m2 [5] of 80 to 100%, a mortality at 20 mg/m2 [5] of 80 to 100% and a mortality at 100 g/ha [6] of 100%. For the same molecule, the mortality at 500 g/ha [6] was 100%, the mortality at 100 g/ha [2] was 100% and the mortality at 500 g/ha [2] was 100%. For the same molecule, the pest or weed control at 32 µg/disc, 100 g/ha [3] was 100%, the pest or weed control at 160 µg/disc, 500 g/ha [3] was 100% and the mortality at 100 g/ha [8] was 90%.

For `C[C@H](NC(=O)c1cc(OCC2CC2(Cl)Cl)cc(C(F)(F)F)c1)c1ncnn1-c1ncc(C#N)s1` (stereo partly drawn) [Example I-30], the mortality at 4 ppm [12] was 90%, the pest or weed control at 32 µg/disc, 100 g/ha [3] was 100% and the pest or weed control at 5 µg/cm2, 5 µg/cm2 [11] was 80%.
